This note sets out measurements from patent US20240360126A1, “PYRAZOLO[3,4-B]PYRIDINE COMPOUNDS FOR THE TREATMENT OF AUTOIMMUNE DISEASE” (Hoffmann-La Roche Inc., priority 2021, published 2024).

The target of series [1] is T1, TLR9 (Homo sapiens, UniProt Q9NR96).
T1 sequence (Q9NR96 26-1032): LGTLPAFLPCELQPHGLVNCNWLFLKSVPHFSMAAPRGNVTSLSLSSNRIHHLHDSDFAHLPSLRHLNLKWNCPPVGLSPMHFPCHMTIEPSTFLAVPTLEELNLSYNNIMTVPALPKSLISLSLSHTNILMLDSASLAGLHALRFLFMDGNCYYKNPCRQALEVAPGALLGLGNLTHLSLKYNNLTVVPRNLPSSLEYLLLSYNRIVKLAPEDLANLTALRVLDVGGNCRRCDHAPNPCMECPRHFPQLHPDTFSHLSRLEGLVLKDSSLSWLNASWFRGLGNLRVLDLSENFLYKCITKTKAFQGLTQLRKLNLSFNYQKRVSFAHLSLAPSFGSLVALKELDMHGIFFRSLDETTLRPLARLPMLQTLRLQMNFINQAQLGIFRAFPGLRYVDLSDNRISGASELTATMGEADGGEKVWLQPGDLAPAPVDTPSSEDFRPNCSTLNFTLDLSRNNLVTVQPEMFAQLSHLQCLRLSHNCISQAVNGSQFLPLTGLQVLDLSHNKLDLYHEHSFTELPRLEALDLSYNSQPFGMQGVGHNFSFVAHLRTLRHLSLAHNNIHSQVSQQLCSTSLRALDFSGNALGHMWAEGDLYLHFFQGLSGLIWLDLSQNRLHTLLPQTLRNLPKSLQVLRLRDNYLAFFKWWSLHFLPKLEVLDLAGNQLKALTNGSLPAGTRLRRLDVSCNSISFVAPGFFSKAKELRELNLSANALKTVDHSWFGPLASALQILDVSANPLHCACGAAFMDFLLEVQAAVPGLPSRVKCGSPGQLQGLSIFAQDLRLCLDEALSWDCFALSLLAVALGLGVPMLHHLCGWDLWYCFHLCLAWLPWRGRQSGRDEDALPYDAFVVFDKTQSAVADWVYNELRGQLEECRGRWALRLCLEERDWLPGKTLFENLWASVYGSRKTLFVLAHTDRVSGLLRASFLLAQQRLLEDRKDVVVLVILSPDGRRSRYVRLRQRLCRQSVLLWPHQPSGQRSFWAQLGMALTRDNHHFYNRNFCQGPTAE
Nature of the series: Human PBMC cell-based assay. Also noted: These cells express TLR7, TLR8, or TLR9, and therefore are natural responders to respective ligand stimulation; endogenous in cells; host or cells: human PBMC from healthy donor whole blood. The note with it: CpG ODN 2216 at 1 μM, read-out: hPBMC/TLR9 IC50. The source says: Unlike the HEK reporter cell lines, human peripheral blood mononuclear cell (PBMC) represents primary human immune cells in blood mainly consisting of lymphocytes, monocytes, and dendritic cells. These cells express TLR7, TLR8, or TLR9, and therefore are natural responders to respective ligand stimulation. Upon activation of these TLRs, PBMCs secrete similar cytokines and chemokines in vitro and in vivo, and therefore the in vitro potency of a TLR7/8/9 antagonist in human PBMC is readily translatable to its pharmacodynamics response in vivo.
Human peripheral blood mononuclear cells (PBMC) were isolated from freshly-drawn lithium-heparinized (Lithium Heparin Plus blood Collection tube, BD Vacutainer®) healthy donor whole blood by density gradient (Ficoll-Paque™ PLUS, GE Healthcare life Sciences). Briefly, […] was diluted with 25 mL PBS (without Ca^2+, Mg^2+) in a 50 mL conical tube with porous barrier (Leucosep tube, Greiner bio-one), where 15.5 mL Ficoll-Paque was under laid after spinning. Tubes were centrifuged for 20 minutes at 800×g (1946 rpm) with the brake in the off position, and PBMC were collected from the buffy coat. Cells were then washed twice in PBS, and red blood cells were lysed by suspension in 2 mL (Red Blood Cell Lysis Buffer, Alfa Aesar) for 5-10 minutes at room temperature. After a final wash in PBS, PBMC were resuspended at a final concentration of 2×10^6 cells/mL in RPMI-1640 media with GlutaMAX™ (Gibco) supplemented with 10% Fetal Bovine Serum (Sigma) and plated at 150 μL/well (3×10^5 cells/well) in tissue culture treated round bottom 96-well plates (Corning Incorporated). Antagonist compounds (compounds of this invention) solubilized and serial diluted in 100% DMSO were added in duplicate to cells to yield a final concentration of 1% DMSO (v/v). PBMC were incubated with antagonist compounds for 30 minutes at 37° C., 5% CO2 before adding various TLR agonist reagents in 48 μL complete media per well as follows (final concentrations indicated): CpG ODN 2216 (InvivoGen) at 1 μM for TLR9, ORN 06/LyoVec (InvivoGen) at […] for TLR8 and R848 (InvivoGen) at 1 μg/mL for TLR7 and TLR8. PBMC were incubated overnight at 37° C. with 5% C02. Cell culture supernatants were collected, and levels of various human cytokines were assessed by Luminex assay (ProcartaPlex™ Multiplex Immunoassay, Invitrogen) or ELISA procedure according to the manufacturer's recommended protocol (eBioscience, ThermoFisher Scientific). Viability of the cells was also checked with Cell Viability Assay (CellTiter Glo® Luminescent Cell Viability Assay, Promega).

A short description of series [2]: Human microsome stability assay. Format: in vitro ADME. The note with it: 1 μM test compound, 0.5 mg/mL liver microsomal protein, 37° C. Here is the method: The human microsomal stability assay is used for early assessment of metabolic stability of a test compound in human liver microsomes.
Human liver microsomes (Cat. NO.: 452117, Corning, USA; Cat. NO.:H2610, Xenotech, USA) were preincubated with test compound for 10 minutes at 37° C. in 100 mM potassium phosphate buffer, pH 7.4. The reactions were initiated by adding NADPH regenerating system.
The final incubation mixtures contained 1 μM test compound, 0.5 mg/mL liver microsomal protein, 1 mM MgCl2, 1 mM NADP, 1 unit/mL isocitric dehydrogenase and 6 mM isocitric acid in 100 mM potassium phosphate buffer, pH 7.4. After incubation times of 0, 3, 6, 9, 15 and 30 minutes at 37° C., 300 μL of cold acetonitrile (including internal standard) was added to 100 μL incubation mixture to terminate the reaction. Following precipitation and centrifugation, the amount of compound remaining in the samples were determined by LC-MS/MS. Controls of no NADPH regenerating system at zero and 30 minutes were also prepared and analyzed.
(Liver microsomes are a subcellular fraction often used to study metabolism.)

SMILES strings stand for the structures.

For the molecule `Cc1cc(N2CC[C@@H](c3ncc(N4CC5(CNCCO5)C4)cc3C)[C@H](C)C2)c2cnn(C)c2n1` [Example 27, 2-[6-[(3S,4R)-1-(1,6-dimethylpyrazolo[3,4-b]pyridin-4-yl)-3-methyl-4-piperidyl]-5-methyl-3-pyridyl]-5-oxa-2,8-diazaspiro[3.5]nonane], in series [1], the IC50 came to 380 nM. For the same molecule, in series [2], the “Clearance of Human microsome” value came to 9.1 mL/min/kg.

Turning to `Cc1cc(N2CC[C@@H](c3ncc(N4CCOC[C@@H](N)C4)cc3C)[C@H](C)C2)c2cnn(C)c2n1` [Example 28, (6S)-4-[6-[(3S,4R)-1-(1,6-dimethylpyrazolo[3,4-b]pyridin-4-yl)-3-methyl-4-piperidyl]-5-methyl-3-pyridyl]-1,4-oxazepan-6-amine], in series [1], the IC50 is 520 nM. Besides, the “Clearance of Human microsome” value in series [2] is given as 6.2 mL/min/kg.

For the molecule `COC[C@H]1CN(c2cnc([C@@H]3CCN(c4cc(C)nc5c4cnn5C)C[C@H]3C)c(C)c2)CCN1` [Example 29, 4-[(3S,4R)-4-[5-[(3R)-3-(methoxymethyl)piperazin-1-yl]-3-methyl-2-pyridyl]-3-methyl-1-piperidyl]-1,6-dimethyl-pyrazolo[3,4-b]pyridine], the IC50 in series [1] stood at 710 nM. In addition, in series [2], the “Clearance of Human microsome” value came out at 6.8 mL/min/kg.

Regarding `Cc1cc(N2CC[C@@H](c3ncc(N4CC(C)(N)C4)cc3C)[C@H](C)C2)c2cnn(C)c2n1` [Example 32, 1-[6-[(3S,4R)-1-(1,6-dimethylpyrazolo[3,4-b]pyridin-4-yl)-3-methyl-4-piperidyl]-5-methyl-3-pyridyl]-3-methyl-azetidin-3-amine], the IC50 in series [1] came out at 320 nM. Also, the “Clearance of Human microsome” value in series [2] was 8.8 mL/min/kg.

For `Cc1cc(N2CC[C@@H](c3ncc(N4C[C@H]5NCCO[C@@H]5C4)cc3C)[C@H](C)C2)c2cnn(C)c2n1` [Example 33, (4aR,7aR)-6-[6-[(3S,4R)-1-(1,6-dimethylpyrazolo[3,4-b]pyridin-4-yl)-3-methyl-4-piperidyl]-5-methyl-3-pyridyl]-3,4,4a,5,7,7a-hexahydro-2H-pyrrolo[3,4-b][1,4]oxazine], the IC50 in series [1] was found to be 146 nM. For the same molecule, the “Clearance of Human microsome” value in series [2] stood at 6.2 mL/min/kg.

With `Cc1cc(N2CC[C@H](c3ccc(N4CCNCC4)cn3)[C@@H](C)C2)c2cnn(C)c2n1` [Example 35, 1,6-dimethyl-4-[(3R,4S)-3-methyl-4-(5-piperazin-1-yl-2-pyridyl)-1-piperidyl]pyrazolo[3,4-b]pyridine], the IC50 in series [1] came out at 870 nM. For the same molecule, the “Clearance of Human microsome” value in series [2] stood at 6.2 mL/min/kg.

Take `Cc1cc(N2CC[C@H](c3ccc(N4CCOC[C@@H](N)C4)cn3)[C@@H](C)C2)c2cnn(C)c2n1` [Example 40, (6S)-4-[6-[(3R,4S)-1-(1,6-dimethylpyrazolo[3,4-b]pyridin-4-yl)-3-methyl-4-piperidyl]-3-pyridyl]-1,4-oxazepan-6-amine]: the IC50 in series [1] stood at 540 nM. Also, the “Clearance of Human microsome” value in series [2] is recorded as 8.1 mL/min/kg.

Consider `Cc1cc(N2CC[C@H](c3ccc(N4CC(C)(N)C4)cn3)[C@@H](C)C2)c2cnn(C)c2n1` [Example 43, 1-[6-[(3R,4S)-1-(1,6-dimethylpyrazolo[3,4-b]pyridin-4-yl)-3-methyl-4-piperidyl]-3-pyridyl]-3-methyl-azetidin-3-amine], for which the IC50 in series [1] turned out to be 470 nM. Also, the “Clearance of Human microsome” value in series [2] was found to be 6.5 mL/min/kg.
